{
  "source": "patent US20210337789A1",
  "about": "“Derivatives of m-Guaiacol, Their Preparation and Their Uses” (Universite de Caen Normandie, priority 2018, published 2021)",
  "key": {"[1]": {"tested_on": "Staphylococcus aureus", "assay": "Bacterial growth screening on wild-type phenotype strain, S. aureus", "assay_type": "cell-based", "experimental": "(§1) The bacterial growth is evaluated by measuring the optical density (DO) at 600 nm using NanoDrop.\n(§2) This ratio permits a classification of the molecules in 4 effect levels: • 0=no effect observed; • 1=effect observed only when the molecule is tested pure; • 2=effect observed at several concentrations, but which gradually decreases the dilutions; • 3=strong effect observed at each concentration of molecule tested.\nA screening of molecules of the invention on several wild-type phenotype strains has been carried out.\nThe strains initially selected are: • Gram+: Streptococcus equi subsp zooepidemicus and Staphylococcus aureus • Gram−: Escherichia coli, Klebsiella pneumoniae and Stenotrophomonas maltophila."}, "[2]": {"tested_on": "K. pneumoniae strains presenting high levels of resistance", "assay": "Bacterial growth on K. pneumoniae strains presenting high levels of resistance", "assay_type": "cell-based, Klebsiella pneumoniae", "parameters": "key to Effects (0 < 1 < 2 < 3): 0 = no effect; 1 = pure only; 2 = several concs; 3 = strong at each; key to Δ DO: change in optical density measured at 600 nm", "conditions": "for Effects (0 < 1 < 2 < 3): molecules at 1, 0.5 and 0.1 mg/ml, triclosan at 0.1 mg/ml", "experimental": "as §1, §2\nCompounds of the invention were tested on 4 strains of E. coli, 3 strains of K. pneumoniae and 4 strains of S. aureus with the resistance profiles below."}},
  "data": [
    {"smiles": "COc1cc(O)c(Br)c(Cl)c1F", "note": "[sr7615]", "values": [
      {"measurement": "Effect level, S. aureus", "setting": "[1]", "value": 3},
      {"measurement": "Δ DO", "setting": "[2]; K. pneumoniae Strain 1, 0.1 mg/ml", "value": 0.025},
      {"measurement": "Δ DO", "setting": "[2]; K. pneumoniae Strain 1, 0.5 mg/ml", "value": 0.490},
      {"measurement": "Δ DO", "setting": "[2]; K. pneumoniae Strain 1, 1 mg/ml", "value": 0.640},
      {"measurement": "Effects (0 < 1 < 2 < 3)", "setting": "[2]; K. pneumoniae Strain 1", "value": 2},
      {"measurement": "Δ DO", "setting": "[2]; K. pneumoniae Strain 2, 0.1 mg/ml", "value": "−0.021"},
      {"measurement": "Δ DO", "setting": "[2]; K. pneumoniae Strain 2, 0.5 mg/ml", "value": 0.518},
      {"measurement": "Δ DO", "setting": "[2]; K. pneumoniae Strain 2, 1 mg/ml", "value": 0.621},
      {"measurement": "Effects (0 < 1 < 2 < 3)", "setting": "[2]; K. pneumoniae Strain 2", "value": 2},
      {"measurement": "Δ DO", "setting": "[2]; K. pneumoniae Strain 3, 0.1 mg/ml", "value": 0.134},
      {"measurement": "Δ DO", "setting": "[2]; K. pneumoniae Strain 3, 0.5 mg/ml", "value": 0.598},
      {"measurement": "Δ DO", "setting": "[2]; K. pneumoniae Strain 3, 1 mg/ml", "value": 0.913},
      {"measurement": "Effects (0 < 1 < 2 < 3)", "setting": "[2]; K. pneumoniae Strain 3", "value": 2}
    ]}
  ]
}
